Experimental data from PubChem BioAssay AID2060489 (Molecular Pharmacology Branch, DTP, NCI, 2025).

Tested on: 922993-354-T-J3-PDC complex spheroids, viability
Experiment: Anticancer human tumor 922993-354-T-J3-PDC patient-derived endometrial carcinoma cell line growth inhibition [GQUAD]
Details: for IC50: curve of first compound; for viability, T/C: stronger effect = lower value
Procedure, shortened: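 Viability of tumor cells grown as complex spheroids with endothelial and stromal cells, exposed to drug combinations. Top concentration at or near clinical Cmax (else 10 microM), diluted in half-log increments.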

[1] = second compound 0.0316 µM, first compound 0.0316 µM
[2] = second compound 0.0316 µM, first compound 0.1 µM
[3] = second compound 0.0316 µM, first compound 0.316 µM
[4] = second compound 0.0316 µM, first compound 1 µM
[5] = second compound 0.0316 µM, first compound 3.16 µM
[6] = second compound 0.0316 µM, first compound 10 µM
[7] = second compound 0.1 µM, first compound 0.0316 µM
[8] = second compound 0.1 µM, first compound 0.1 µM
[9] = second compound 0.1 µM, first compound 0.316 µM
[10] = second compound 0.1 µM, first compound 1 µM
[11] = second compound 0.1 µM, first compound 3.16 µM
[12] = second compound 0.1 µM, first compound 10 µM
[13] = second compound 0.316 µM, first compound 0.0316 µM
[14] = second compound 0.316 µM, first compound 0.1 µM
[15] = second compound 0.316 µM, first compound 0.316 µM
[16] = second compound 0.316 µM, first compound 1 µM
[17] = second compound 0.316 µM, first compound 3.16 µM
[18] = second compound 0.316 µM, first compound 10 µM
[19] = second compound 1 µM, first compound 0.0316 µM
[20] = second compound 1 µM, first compound 0.1 µM
[21] = second compound 1 µM, first compound 0.316 µM
[22] = second compound 1 µM, first compound 1 µM
[23] = second compound 1 µM, first compound 3.16 µM
[24] = second compound 1 µM, first compound 10 µM
[25] = second compound 3.16 µM, first compound 0.0316 µM
[26] = second compound 3.16 µM, first compound 0.1 µM
[27] = second compound 3.16 µM, first compound 0.316 µM
[28] = second compound 3.16 µM, first compound 1 µM
[29] = second compound 3.16 µM, first compound 3.16 µM
[30] = second compound 3.16 µM, first compound 10 µM
[31] = second compound 10 µM, first compound 0.0316 µM
[32] = second compound 10 µM, first compound 0.1 µM
[33] = second compound 10 µM, first compound 0.316 µM
[34] = second compound 10 µM, first compound 1 µM
[35] = second compound 10 µM, first compound 3.16 µM
[36] = second compound 10 µM, first compound 10 µM
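Note: spheroids exposed to compounds for seven days.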
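Throughout, for viability, T/C: 100% = DMSO vehicle control viability.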

Molecule `COc1cccc2c1C(=O)c1c(O)c3c(c(O)c1C2=O)CC(O)(C(=O)CO)CC3OC1CC(N)C(O)C(C)O1` (stereo unspecified) + Cc1cnc(CNC(=O)c2c(=O)c3ccc(N4CCCN(C)CC4)nc3n3c2sc2ccccc23)cn1 has an IC50 (second compound 0.0316 µM) of over 10000 nM, an IC50 (second compound 0.1 µM) of 3670 nM and an IC50 (second compound 0.316 µM) of under 31.6 nM. It also gave an IC50 (second compound 1 µM) of under 31.6 nM, an IC50 (second compound 3.16 µM) of under 31.6 nM and an IC50 (second compound 10 µM) of under 31.6 nM. The viability, T/C [1] was 83.7%, the viability, T/C [2] was 79.4% and the viability, T/C [3] was 67.2%. The viability, T/C [4] was 75.3%, the viability, T/C [5] was 73.1% and the viability, T/C [6] was 55%. It also gave a viability, T/C [7] of 54.3%, a viability, T/C [8] of 71.3% and a viability, T/C [9] of 58.3%. The viability, T/C [10] was 51.1%, the viability, T/C [11] was 53.6% and the viability, T/C [12] was 42%. The viability, T/C [13] was 52.8%, the viability, T/C [14] was 39.7% and the viability, T/C [15] was 42.1%. For the same molecule, the viability, T/C [16] was 40.4%, the viability, T/C [17] was 60.5% and the viability, T/C [18] was 42.2%. The viability, T/C [19] was 50.6%, the viability, T/C [20] was 40.2% and the viability, T/C [21] was 37.1%. For the same molecule, the viability, T/C [22] was 43.2%, the viability, T/C [23] was 52.2% and the viability, T/C [24] was 38.8%. The viability, T/C [25] was 38.5%, the viability, T/C [26] was 41.3% and the viability, T/C [27] was 41.3%. For the same molecule, the viability, T/C [28] was 41.8%, the viability, T/C [29] was 51% and the viability, T/C [30] was 27.4%. It also gave a viability, T/C [31] of 44.9%, a viability, T/C [32] of 40.2% and a viability, T/C [33] of 46.6%. The viability, T/C [34] was 50.5%, the viability, T/C [35] was 36.8% and the viability, T/C [36] was 11.8%.

For `Cc1cccc(N(C)C(=O)C2C(O)CCN2c2nc(C)cc(C(F)(F)F)c2C#N)c1` (stereo unspecified) + Cc1cnc(CNC(=O)c2c(=O)c3ccc(N4CCCN(C)CC4)nc3n3c2sc2ccccc23)cn1, the IC50 (second compound 0.0316 µM) was over 10000 nM, the IC50 (second compound 0.1 µM) was 4160 nM and the IC50 (second compound 0.316 µM) was under 31.6 nM. The IC50 (second compound 1 µM) was over 10000 nM, the IC50 (second compound 3.16 µM) was under 31.6 nM and the IC50 (second compound 10 µM) was under 31.6 nM. The viability, T/C [1] was 78%, the viability, T/C [2] was 87.2% and the viability, T/C [3] was 88%. For the same molecule, the viability, T/C [4] was 77.9%, the viability, T/C [5] was 74.6% and the viability, T/C [6] was 68.6%. It also gave a viability, T/C [7] of 65.1%, a viability, T/C [8] of 62.4% and a viability, T/C [9] of 59%. It also gave a viability, T/C [10] of 52.9%, a viability, T/C [11] of 55.8% and a viability, T/C [12] of 43.9%. The viability, T/C [13] was 50.3%, the viability, T/C [14] was 42.7% and the viability, T/C [15] was 43.4%. The viability, T/C [16] was 53.7%, the viability, T/C [17] was 45.5% and the viability, T/C [18] was 47.1%. For the same molecule, the viability, T/C [19] was 54.7%, the viability, T/C [20] was 59% and the viability, T/C [21] was 54.4%. It also gave a viability, T/C [22] of 46.1%, a viability, T/C [23] of 57.8% and a viability, T/C [24] of 53.5%. It also gave a viability, T/C [25] of 50.9%, a viability, T/C [26] of 44.4% and a viability, T/C [27] of 41.3%. The viability, T/C [28] was 46.1%, the viability, T/C [29] was 51.1% and the viability, T/C [30] was 44.6%. The viability, T/C [31] was 39.6%, the viability, T/C [32] was 48.5% and the viability, T/C [33] was 56.8%. The viability, T/C [34] was 39.1%, the viability, T/C [35] was 50.6% and the viability, T/C [36] was 41.4%.

`Cn1ncnc1[C@H]1c2n[nH]c(=O)c3cc(F)cc(c23)N[C@@H]1c1ccc(F)cc1` + Cc1cnc(CNC(=O)c2c(=O)c3ccc(N4CCCN(C)CC4)nc3n3c2sc2ccccc23)cn1 was tested, and the IC50 (second compound 0.0316 µM) was over 316 nM, the IC50 (second compound 0.1 µM) was 71.7 nM and the IC50 (second compound 0.316 µM) was 7.19 nM. It also gave an IC50 (second compound 1 µM) of under 0.999 nM, an IC50 (second compound 3.16 µM) of under 0.999 nM and an IC50 (second compound 10 µM) of under 0.999 nM. For the same molecule, the viability, T/C (second compound 0.0316 µM, first compound 0.000999 µM) was 93.2%, the viability, T/C (second compound 0.0316 µM, first compound 0.00316 µM) was 78.7% and the viability, T/C (second compound 0.0316 µM, first compound 0.00999 µM) was 76.6%. It also gave a viability, T/C [1] of 72.8%, a viability, T/C (second compound 0.0316 µM, first compound 0.0999 µM) of 72.3% and a viability, T/C [3] of 59.9%. For the same molecule, the viability, T/C (second compound 0.1 µM, first compound 0.000999 µM) was 65.4%, the viability, T/C (second compound 0.1 µM, first compound 0.00316 µM) was 69.2% and the viability, T/C (second compound 0.1 µM, first compound 0.00999 µM) was 58.3%. It also gave a viability, T/C [7] of 50.7%, a viability, T/C (second compound 0.1 µM, first compound 0.0999 µM) of 52.2% and a viability, T/C [9] of 39.3%. It also gave a viability, T/C (second compound 0.316 µM, first compound 0.000999 µM) of 43.5%, a viability, T/C (second compound 0.316 µM, first compound 0.00316 µM) of 54.2% and a viability, T/C (second compound 0.316 µM, first compound 0.00999 µM) of 55.6%. For the same molecule, the viability, T/C [13] was 44.2%, the viability, T/C (second compound 0.316 µM, first compound 0.0999 µM) was 41.6% and the viability, T/C [15] was 32%. The viability, T/C (second compound 1 µM, first compound 0.000999 µM) was 49.2%, the viability, T/C (second compound 1 µM, first compound 0.00316 µM) was 53.4% and the viability, T/C (second compound 1 µM, first compound 0.00999 µM) was 45.9%. It also gave a viability, T/C [19] of 49.9%, a viability, T/C (second compound 1 µM, first compound 0.0999 µM) of 50.3% and a viability, T/C [21] of 49.6%. It also gave a viability, T/C (second compound 3.16 µM, first compound 0.000999 µM) of 41.9%, a viability, T/C (second compound 3.16 µM, first compound 0.00316 µM) of 50.1% and a viability, T/C (second compound 3.16 µM, first compound 0.00999 µM) of 44%. It also gave a viability, T/C [25] of 49.5%, a viability, T/C (second compound 3.16 µM, first compound 0.0999 µM) of 49.4% and a viability, T/C [27] of 37.2%. The viability, T/C (second compound 10 µM, first compound 0.000999 µM) was 49%, the viability, T/C (second compound 10 µM, first compound 0.00316 µM) was 43.6% and the viability, T/C (second compound 10 µM, first compound 0.00999 µM) was 48.4%. For the same molecule, the viability, T/C [31] was 49%, the viability, T/C (second compound 10 µM, first compound 0.0999 µM) was 49.3% and the viability, T/C [33] was 41.6%.
